This is an account of results in patent US10005767B2, “Compositions and methods for inhibition of the JAK pathway” (Rigel Pharmaceuticals, Inc., priority 2009, dated 2018).

For the assay, the system named is human primary T-cells, IL-2 stimulated proliferation (JAK-1 and JAK-3 dependent; reported as JAK3 activity). Nature of the assay: Human primary T-cell proliferation stimulated by IL-2 (Example 3). The format is cell-based. The note with it: tested under conditions described in Example 3 (IL-2 stimulated human primary T-cell proliferation), read-out: ability to inhibit JAK3 activity, IC50 range (Table V). Summed up:
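Peripheral-blood human T-cells pre-activated via TCR/CD28, IL-2-starved overnight, then cultured 72 h at 37 °C with compound in Yssel's medium containing IL-2 (80 U/mL in cell suspension). Proliferation read as viable-cell ATP by CellTiter-Glo luminescence; reduction versus control taken as JAK pathway inhibition.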

Like-named read-outs stand apart in the source and are kept apart here.

Usually IC50 stands for the concentration that gives 50% inhibition. In the case of `Cc1cnc(Nc2ccc(-c3ccncc3)c(C(F)(F)F)c2)nc1Nc1ccc2oc(=O)[nH]c2c1` [Compound I-330, 5-methyl-N4-(2-oxo-2,3-dihydro-1,3-benzoxazol-5-yl)-N2-[4-(pyridin-4-yl)-3-trifluoromethyl]phenyl-2,4-pyrimidinediamine], the IC50 is 5000 to 10000 nM. Regarding `COc1cc(Nc2ncc(C)c(Nc3ccc4oc(=O)[nH]c4c3)n2)cc(C(F)F)c1` [Compound I-273, 5-(2-(3-(difluoromethyl)-5-methoxyphenylamino)-5-methylpyrimidin-4-ylamino)benzo[d]oxazol-2(3H)-one], for the setting “Homo sapiens, T-cell”, the IC50 is below 500 nM.

Consider `CCCC(NC)c1cc(Nc2ncc(C)c(Nc3ccc4oc(=O)[nH]c4c3)n2)cc(C(F)(F)F)c1` (stereo not drawn) [Compound I-460, 5-(5-methyl-2-(3-(1-(methylamino)butyl)-5-(trifluoromethyl)phenylamino)pyrimidin-4-ylamino)benzo[d]oxazol-2(3H)-one], for which the concentration for half-maximal inhibition (IC50) (Homo sapiens, T-cell) is below 500 nM. With `Cc1cnc(Nc2ccncc2F)nc1Nc1ccc2oc(=O)[nH]c2c1` [IV-63, N2-(3-fluoropyridin-4-yl)-5-methyl-N4-(2-oxo-2,3-dihydro-1,3-benzoxazol-5-yl)-2,4-pyrimidinediamine], the IC50 is 5000 to 10000 nM. As for `Cc1cnc(Nc2ccc(N3CCN(C)CC3)nc2)nc1Nc1cc(C)c2oc(=O)[nH]c2c1` [II-72, 7-methyl-5-(5-methyl-2-(6-(4-methylpiperazin-1-yl)pyridin-3-ylamino)pyrimidin-4-ylamino)benzo[d]oxazol-2(3H)-one], under “Homo sapiens, T-cell”, the 50% inhibitory concentration (IC50) is below 500 nM. Turning to `Cc1cnc(Nc2ccc(NC3CCNCC3)nc2)nc1Nc1ccc2oc(=O)[nH]c2c1` [II-36, N4-(benzo[d]oxazol-2(3H)-on-5-yl)-N2-[2-(1H-piperidin-4-yl)aminopyridin-5-yl]-5-methylpyrimidine-2,4-diamine], the 50% inhibitory concentration (IC50) was below 500 nM. In the case of `Cc1cnc(Nc2cc(C)c(OCCN3CCOCC3)c(C)c2)nc1Nc1ccc2oc(=O)[nH]c2c1` [Compound I-459, 5-(2-(3,5-dimethyl-4-(2-morpholinoethoxy)phenylamino)-5-methylpyrimidin-4-ylamino)benzo[d]oxazol-2(3H)-one], the IC50 (Homo sapiens, T-cell) was below 500 nM. For `Cc1cnc(Nc2ccc(C=O)cc2)nc1Nc1ccc2oc(=O)[nH]c2c1` [Compound I-4, N4-(benzo[d]oxazol-2(3H)-on-5-yl)-N2-(4-formylphenyl)-5-methylpyrimidine-2,4-diamine], the IC50 (Homo sapiens, T-cell) was below 500 nM. Regarding `COc1ccc(C(F)(F)F)cc1Nc1ncc(C)c(Nc2ccc3oc(=O)[nH]c3c2)n1` [Compound I-498, 5-[2-(2-Methoxy-5-trifluoromethyl-phenylamino)-5-methyl-pyrimidin-4-ylamino]-3H-benzooxazol-2-one], the half-maximal inhibitory concentration (IC50) (Homo sapiens, T-cell) lay within 500 to 5000 nM. Take `COc1cc(Nc2ncc(C)c(Nc3ccc4oc(=O)[nH]c4c3)n2)ccc1C#N` [Compound I-380, N2-(4-cyano-3-methoxy)phenyl-5-methyl-N4-(2-oxo-2,3-dihydro-1,3-benzoxazol-5-yl)-2,4-pyrimidinediamine]: the half-maximal inhibitory concentration (IC50) was below 500 nM.

For `Cc1cnc(Nc2ccc(N3CCN(C)CC3)nc2)nc1Nc1ccc2oc(=O)[nH]c2c1` [II-13, N4-(benzoxazolin-2-on-5-yl)-N2-[2-(4-methylpiperazin-1-yl)pyridin-5-yl]-5-methylpyrimidine-2,4-diamine], the IC50 (Homo sapiens, T-cell) is below 500 nM. In the case of `Cc1cnc(Nc2c(C)cccc2F)nc1Nc1ccc2oc(=O)[nH]c2c1` [IV-62, 5-(2-(2-fluoro-6-methylphenylamino)-5-methylpyrimidin-4-ylamino)benzo[d]oxazol-2(3H)-one], under “Homo sapiens, T-cell”, the IC50 was 500 to 5000 nM.

In the case of `Cc1cnc(Nc2cccc(C(=O)N3CCOCC3)c2)nc1Nc1ccc2oc(=O)[nH]c2c1` [Compound I-256, 5-(5-methyl-2-(3-(morpholine-4-carbonyl)phenylamino)pyrimidin-4-ylamino)benzo[d]oxazol-2(3H)-one], the 50% inhibitory concentration (IC50) (Homo sapiens, T-cell) is below 500 nM. `Cc1cnc(Nc2ccc(N3CCN(C(=O)C(F)(F)F)[C@H](C)C3)nc2)nc1Nc1ccc2oc(=O)[nH]c2c1` [II-57, (R)-5-(5-methyl-2-(6-(3-methyl-4-(2,2,2-trifluoroacetyl)piperazin-1-yl)pyridin-3-ylamino)pyrimidin-4-ylamino)benzo[d]oxazol-2(3H)-one]: the concentration for half-maximal inhibition (IC50) (Homo sapiens, T-cell) is below 500 nM. Turning to `Cc1cnc(Nc2cc(F)c(F)cc2F)nc1Nc1ccc2oc(=O)[nH]c2c1` [Compound I-481, 5-[5-Methyl-2-(2,4,5-trifluoro-phenylamino)-pyrimidin-4-ylamino]-3H-benzooxazol-2-one], the IC50 (Homo sapiens, T-cell) was below 500 nM. As for `Cc1cnc(Nc2ccc(S(N)(=O)=O)cc2)nc1Nc1ccc2oc(=O)[nH]c2c1` [Compound I-15], the IC50 was below 500 nM.

In the case of `COc1cc(Nc2ncc(C)c(Nc3ccc4oc(=O)n(COP(=O)(O)O)c4c3)n2)cc(C(F)(F)F)c1` [Compound I-357, N2-(3-methoxy-5-trifluoromethyl)phenyl-5-methyl-N4-[3-(phosphonooxy)methyl-2-oxo-2,3-dihydro-1,3-benzoxazol-5-yl]-2,4-pyrimidinediamine], the IC50 fell in the range of 500 to 5000 nM. Turning to `Cc1cnc(Nc2ccc(C(=O)Nc3ccccc3)cc2)nc1Nc1ccc2oc(=O)[nH]c2c1` [Compound I-135, 4-[5-Methyl-4-(2-oxo-2,3-dihydro-benzooxazol-5-ylamino)-pyrimidin-2-ylamino]-N-phenyl-benzamide], under “Homo sapiens, T-cell”, the half-maximal inhibitory concentration (IC50) is below 500 nM. On the same count and under the same terms, as for `CC(=O)c1ccc(F)c(Nc2ncc(C)c(Nc3ccc4oc(=O)[nH]c4c3)n2)c1` [Compound I-519, 5-(2-(5-acetyl-2-fluorophenylamino)-5-methylpyrimidin-4-ylamino)benzo[d]oxazol-2(3H)-one], the figure is below 500 nM. Turning to `Cc1cnc(Nc2ccccc2F)nc1Nc1ccc2oc(=O)[nH]c2c1` [Compound I-468, 5-[2-(2-Fluoro-phenylamino)-5-methyl-pyrimidin-4-ylamino]-3H-benzooxazol-2-one], the IC50 (Homo sapiens, T-cell) was below 500 nM. In the case of `Cc1cnc(Nc2ccc(N3CCNCC3)cc2)nc1Nc1ccc2oc(=O)[nH]c2c1` [Compound I-332, 5-methyl-N4-(2-oxo-2,3-dihydro-1,3-benzoxazol-5-yl)-N2-(4-piperazino)phenyl-2,4-pyrimidinediamine], the half-inhibitory concentration (IC50) is below 500 nM.

For `Cc1cnc(Nc2ccc(C(C)NCc3ccccc3)cc2)nc1Nc1ccc2oc(=O)[nH]c2c1` (stereo not drawn) [Compound I-206, 5-(2-(4-(1-(benzylamino)ethyl)phenylamino)-5-methylpyrimidin-4-ylamino)benzo[d]oxazol-2(3H)-one], the IC50 (Homo sapiens, T-cell) was below 500 nM. For the compound `Cc1cnc(Nc2ccc(C(=O)N3CCOCC3)cc2)nc1Nc1ccc2oc(=O)[nH]c2c1` [Compound I-257, 5-(5-methyl-2-(4-(morpholine-4-carbonyl)phenylamino)pyrimidin-4-ylamino)benzo[d]oxazol-2(3H)-one], the IC50 (Homo sapiens, T-cell) was below 500 nM.

Consider `COc1cc(Nc2ncc(F)c(Nc3ccc4oc(=O)[nH]c4c3)n2)cc(OC)c1OC` [Compound I-115, N4-(benzoxazolin-2-on-5-yl)-N2-(3,4,5-trimethoxyphenyl)-5-fluoropyrimidine-2,4-diamine], for which the 50% inhibitory concentration (IC50) (Homo sapiens, T-cell) was below 500 nM.

For `NS(=O)(=O)c1ccc(Nc2ncc(F)c(Nc3ccc4[nH]c(=O)[nH]c4c3)n2)cc1` [Compound I-13, 5-(5-fluoro-2-(4-aminosulfonylphenylamino)pyrimidin-4-ylamino)-1H-benzo[d]imidazol-2(3H)-one], where the note is “Homo sapiens, T-cell”, the concentration for half-maximal inhibition (IC50) was 500 to 5000 nM. With `Cn1c(=O)n(C)c2cc(Nc3nc(Nc4cccc(S(N)(=O)=O)c4)ncc3F)ccc21` [Compound I-39, N4-(1,3-dimethylbenzimidazolin-2-on-5-yl)-N2-((3-aminosulfonyl)phenyl)-5-fluoropyrimidine-2,4-diamine], the half-maximal inhibitory concentration (IC50) was below 500 nM. On to `Cc1cnc(Nc2ccc3c(c2)CN(CC2CCCC2)C3)nc1Nc1ccc2oc(=O)[nH]c2c1` [III-10, N4-(benzo[d]oxazol-2(3H)-on-5-yl)-N2-(2-cyclopentylmethylisoindolin-5-yl)-5-methylpyrimidine-2,4-diamine], for which the IC50 (Homo sapiens, T-cell) is below 500 nM. As to `Cc1cnc(Nc2ccc(CN3CCOCC3)cc2)nc1Nc1ccc2oc(=O)[nH]c2c1` [Compound I-382, 5-methyl-N2-(4-morpholinomethyl)phenyl-N4-(2-oxo-2,3-dihydro-1,3-benzoxazol-5-yl)-2,4-pyrimidinediamine], the concentration for half-maximal inhibition (IC50) is below 500 nM. As for `Cc1cnc(Nc2cc(C(C)N3CCC3)cc(C(F)(F)F)c2)nc1Nc1ccc2oc(=O)[nH]c2c1` (stereo not drawn) [Compound I-464, 5-(2-(3-(1-(azetidin-1-yl)ethyl)-5-(trifluoromethyl)phenylamino)-5-methylpyrimidin-4-ylamino)benzo[d]oxazol-2(3H)-one], where the note is “Homo sapiens, T-cell”, the IC50 is below 500 nM.

On to `COc1cc(Nc2ncc(C)c(Nc3ccc4oc(=O)[nH]c4c3)n2)cc(C(F)(F)F)c1` [Compound I-228, 5-(2-(3-deuteratedmethoxy-5-(trifluoromethyl)phenylamino)-5-methylpyrimidin-4-ylamino)benzo[d]oxazol-2(3H)-one], for which the IC50 was below 500 nM.

On to `Cc1cnc(Nc2cnc(N3CC4CN(CC5CC5)CC4C3)c(F)c2)nc1Nc1ccc2oc(=O)[nH]c2c1` (stereo not drawn) [II-52, 5-{2-[6-(5-Cyclopropylmethyl-hexahydro-pyrrolo[3,4-c]pyrrol-2-yl)-5-fluoro-pyridin-3-ylamino]-5-methyl-pyrimidin-4-ylamino}-3H-benzooxazol-2-one], for which the IC50 (Homo sapiens, T-cell) is below 500 nM.

Turning to `Cc1cnc(Nc2ccc(F)cc2F)nc1Nc1ccc2oc(=O)[nH]c2c1` [Compound I-456, 5-[2-(2,4-Difluoro-phenylamino)-5-methyl-pyrimidin-4-ylamino]-3H-benzooxazol-2-one], under “Homo sapiens, T-cell”, the IC50 is below 500 nM. For the compound `CCN1CC2CN(c3ncc(Nc4ncc(C)c(Nc5ccc6oc(=O)[nH]c6c5)n4)cc3C(F)(F)F)CC2C1` (stereo not drawn) [II-119, N2-[2-(3-ethyl-3,7-diazabicyclo[3.3.0]octan-7-yl)-3-trifluoromethylpyridin-5-yl]-5-methyl-N4-(2-oxo-2,3-dihydro-1,3-benzoxazol-5-yl)-2,4-pyrimidinediamine], the IC50 (Homo sapiens, T-cell) is below 500 nM.
